Measured values as given in ChEMBL document CHEMBL1201862, “PubChem BioAssay data set” (2004).
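A five-concentration, 48-hour dose response in 96-well plates underlies each endpoint, interpolated linearly between surrounding concentrations. Here, GI50 denotes the concentration required for 50% inhibition of growth.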 The source made the active and inactive calls. No stated cut-off is given here; in the data, active = GI50 up to about 1.1 µM and inactive = higher.

What was measured:
Assay in all cases: growth of human tumour cells (NCI), 48 h
[1] = tested on: 786-0
[2] = tested on: UACC-257
[3] = tested on: A549
[4] = tested on: SF-539
[5] = tested on: SW-620
[6] = tested on: MOLT-4
[7] = tested on: M14
[8] = tested on: UACC-62
[9] = tested on: SK-MEL-28
[10] = tested on: SNB-75
[11] = tested on: SF-295
[12] = tested on: LOX IMVI
[13] = tested on: HCC 2998
[14] = tested on: UO-31
[15] = tested on: NCI-H522
[16] = tested on: KM12
[17] = tested on: MCF7
[18] = tested on: DU-145
[19] = tested on: OVCAR-5

Measured: GI50

CSc1ccc(NC(=S)NN(C)C)cc1
inactive: [1] > 10 µM | [2] > 10 µM | [3] > 10 µM | [4] > 10 µM | [5] > 10 µM | [6] > 10 µM | [7] > 10 µM | [8] > 10 µM | [9] > 10 µM | [10] > 10 µM | [11] > 10 µM | [12] > 10 µM | [13] > 10 µM | [14] > 10 µM | [15] > 10 µM | [16] > 10 µM | [17] > 10 µM | [18] > 10 µM

CNC(=O)OCc1c(CO)nc(SC)n1C
inactive: [2] > 100 µM | [3] > 100 µM | [4] > 100 µM | [5] > 100 µM | [6] > 100 µM | [8] > 100 µM | [9] > 100 µM | [10] > 100 µM | [11] > 100 µM | [12] > 100 µM | [13] > 100 µM | [14] > 100 µM | [15] > 100 µM | [16] > 100 µM | [17] > 100 µM | [19] > 100 µM

CCO/C=N\C1=C(C#N)SC2=N/C(=C\c3ccc(OC)cc3)C(=O)N21
inactive: [1] 40.6 µM | [2] > 100 µM | [3] > 100 µM | [4] > 100 µM | [5] > 100 µM | [6] > 100 µM | [7] > 100 µM | [9] > 100 µM | [10] 19.2 µM | [11] 59.3 µM | [12] > 100 µM | [13] 39.5 µM | [14] > 100 µM | [15] 79.8 µM | [16] > 100 µM | [17] > 100 µM | [18] > 100 µM | [19] > 100 µM

CSc1cc(Cl)c(C)cc1S(=O)(=O)NC(=O)NNc1ccc(F)cc1
inactive: [1] > 100 µM | [3] > 100 µM | [4] > 100 µM | [5] > 100 µM | [6] > 100 µM | [7] > 100 µM | [9] > 100 µM | [10] > 100 µM | [11] > 100 µM | [12] > 100 µM | [13] 30 µM | [15] > 100 µM | [16] > 100 µM | [17] > 100 µM | [18] > 100 µM | [19] > 100 µM

O=C(O)c1ccccc1/N=C/c1ccc(N(CCCl)CCCl)cc1
inactive: [2] > 78 µM | [3] > 100 µM | [4] > 66.5 µM | [5] > 100 µM | [6] 36.6 µM | [8] 5.74 µM | [9] > 100 µM | [10] > 100 µM | [11] > 100 µM | [12] > 100 µM | [13] > 100 µM | [14] > 65.2 µM | [15] > 100 µM | [16] > 100 µM | [17] > 84.7 µM | [19] > 100 µM
